Measured values published in patent publication US12473339B2, “Acylated glucagon analogues” (Zealand Pharma A/S, priority 2013, dated 2025).
*1 amine or outer side, *2 acyl side, *3 side chain or, on linkers, in order; H or OH if unused. Where a SMILES comes first, the peptide text is derived from it. Side-chain parts run from the residue outwards. [ ]: non-standard residue; d: D form. The star is where a group is joined. C18 diacid = O=C(O)CCCCCCCCCCCCCCCCC(=O)*; γGlu = O=C(O)[C@H](CCC(=O)[*:2])N[*:1]; AEEA = NCCOCCOCC(=O)O; Aib = CC(C)(N)C(=O)O

Target: T1, human glucagon-like peptide 1 receptor (GLP-1R) (Homo sapiens, UniProt P43220)
T1 construct: expressed in transfected cells
Test: GLP-1 receptor efficacy assay (cAMP AlphaScreen, CHO cells)
Format: cell-based
Conditions: for Ratio GLP-1/Glucagon: EC50 [GLP-1R] / EC50 [Glucagon-R], human receptors in CHO-K1
Text: The cDNA encoding either the human glucagon receptor (Glucagon-R) (primary accession number P47871) or the human glucagon-like peptide 1 receptor (GLP-1R) (primary accession number P43220) were synthesized and cloned into a mammalian expression vector containing a Zeocin resistance marker.
The mammalian expression vectors encoding the Glucagon-R or the GLP-1-R were transfected into Chinese hamster ovary (CHO) cells by the Attractene method. Stably expressing clones were obtained by Zeocin selection (250 μg/mL) upon limited dilution of cells resistant to the selection pressure. Glucagon-R and GLP-1-R cell clones expressing were picked, propagated and tested in the Glucagon-R and GLP-1-R efficacy assays as described below. One Glucagon-R expressing clone and one GLP-1-R expressing clone were chosen for compound profiling.
CHO cells expressing the human Glucagon-R, or human GLP-1-R were seeded 24 hours prior to the assay at 30,000 cells per well in 96-well microtiter plates in culture in 100 μl growth medium. On the day of analysis, growth medium was removed and the cells were washed once with 200 μl of assay buffer (Krebs-Ringer-buffer—KRBH). The buffer was removed and the cells were incubated for 15 min at room temperature in 10 μl KRBH (KRBH+10 mM HEPES, 5 mM NaHCO3, 0.1% (V/V) BSA) with 0.1 mM IBMX in deionized water containing increasing concentrations of test peptides. The reaction was stopped by the addition of lysis buffer (0.1% w/v BSA, 5 mM HEPES, 0.3% v/v Tween-20). After cell lysis for 10 min at room temperature, lysates were transferred to 384-well plates and 10 μl of acceptor/donorbead mixture as contained in the AlphaScreen™ cAMP Functional Assay Kit was added. After one hour of incubation at room temperature in the dark, the cAMP content was determined applying the AlphaScreen™ cAMP Functional Assay Kit from Perkin-Elmer according to manufacturer instructions. EC50 and relative efficacies compared to reference compounds (glucagon and GLP-1) were calculated applying computer aided curve fitting. The GLP-1/glucagon ratio is calculated as defined earlier.

T1 sequence (P43220 24-463): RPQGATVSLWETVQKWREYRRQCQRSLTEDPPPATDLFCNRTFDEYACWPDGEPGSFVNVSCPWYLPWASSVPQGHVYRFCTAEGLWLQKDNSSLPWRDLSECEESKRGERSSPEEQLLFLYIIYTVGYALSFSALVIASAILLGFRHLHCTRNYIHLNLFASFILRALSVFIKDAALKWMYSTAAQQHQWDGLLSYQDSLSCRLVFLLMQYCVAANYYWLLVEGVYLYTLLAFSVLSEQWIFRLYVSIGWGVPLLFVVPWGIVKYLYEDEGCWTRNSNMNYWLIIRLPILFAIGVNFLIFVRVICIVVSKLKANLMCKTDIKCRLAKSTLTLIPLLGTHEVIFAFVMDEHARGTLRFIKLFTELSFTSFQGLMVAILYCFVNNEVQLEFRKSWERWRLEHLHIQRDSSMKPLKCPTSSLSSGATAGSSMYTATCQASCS

Row | Ratio GLP-1/Glucagon | EC50 (cAMP formation, CHO cells expressing human GLP-1-R, 15 min, read-out: EC50 hGLP-1R CHO-K1) [nM] | SMILES
1 | 0.63 |  | CC[C@H](C)[C@H](NC(=O)[C@H](Cc1ccccc1)NC(=O)[C@H](CC(=O)O)NC(=O)[C@H](CCCCN)NC(=O)[C@H](C)NC(=O)[C@H](C)NC(=O)[C@H](CCCNC(=N)N)NC(=O)[C@H](CCC(=O)O)NC(=O)[C@H](CC(=O)O)NC(=O)[C@H](CC(C)C)NC(=O)[C@H](Cc1ccc(O)cc1)NC(=O)[C@H](CCCCN)NC(=O)[C@H](CO)NC(=O)[C@H](Cc1ccc(O)cc1)NC(=O)[C@H](CC(=O)O)NC(=O)[C@H](CO)NC(=O)[C@@H](NC(=O)[C@H](Cc1ccccc1)NC(=O)[C@@H](NC(=O)CNC(=O)[C@H](CCC(N)=O)NC(=O)C1(NC(=O)[C@@H](N)Cc2c[nH]cn2)CCC1)[C@@H](C)O)[C@@H](C)O)C(=O)N[C@@H](CCCCNC(=O)CNC(=O)CNC(=O)[C@H](CO)NC(=O)CNC(=O)[C@H](CO)NC(=O)CNC(=O)CC[C@H](NC(=O)CCCCCCCCCCCCCCCCC(=O)O)C(=O)O)C(=O)N[C@@H](Cc1c[nH]c2ccccc12)C(=O)N[C@@H](CC(C)C)C(=O)N[C@@H](CCC(=O)O)C(=O)N[C@@H](CO)C(=O)N[C@@H](C)C(N)=O [Compound 13]
2 | 0.65 |  | CC[C@H](C)[C@H](NC(=O)[C@H](Cc1ccccc1)NC(=O)[C@H](CC(=O)O)NC(=O)[C@H](CCCCN)NC(=O)[C@H](C)NC(=O)[C@H](C)NC(=O)[C@H](CCCNC(=N)N)NC(=O)[C@H](CCC(=O)O)NC(=O)[C@H](CC(=O)O)NC(=O)[C@H](CC(C)C)NC(=O)[C@H](Cc1ccc(O)cc1)NC(=O)[C@H](CCCCN)NC(=O)[C@H](CO)NC(=O)[C@H](Cc1ccc(O)cc1)NC(=O)[C@H](CC(=O)O)NC(=O)[C@H](CO)NC(=O)[C@@H](NC(=O)[C@H](Cc1ccccc1)NC(=O)[C@@H](NC(=O)CNC(=O)[C@H](CCC(N)=O)NC(=O)C1(NC(=O)[C@@H](N)Cc2c[nH]cn2)CCC1)[C@@H](C)O)[C@@H](C)O)C(=O)N[C@@H](CCC(=O)O)C(=O)N[C@@H](Cc1c[nH]c2ccccc12)C(=O)N[C@@H](CC(C)C)C(=O)N[C@@H](CCC(=O)O)C(=O)N[C@@H](CCCCNC(=O)CNC(=O)CNC(=O)[C@H](CO)NC(=O)CNC(=O)[C@H](CO)NC(=O)CNC(=O)CC[C@H](NC(=O)CCCCCCCCCCCCCCCCC(=O)O)C(=O)O)C(=O)N[C@@H](C)C(N)=O [Compound 15]
3 | 2.58 |  | CC[C@H](C)[C@H](NC(=O)[C@H](Cc1ccccc1)NC(=O)[C@H](CC(=O)O)NC(=O)[C@H](Cc1c[nH]cn1)NC(=O)[C@H](C)NC(=O)[C@H](C)NC(=O)[C@H](CCCNC(=N)N)NC(=O)[C@H](CCCCNC(=O)COCCOCCNC(=O)COCCOCCNC(=O)CC[C@H](NC(=O)CCCCCCCCCCCCCCCCC(=O)O)C(=O)O)NC(=O)[C@H](CCC(=O)O)NC(=O)[C@H](CC(C)C)NC(=O)[C@H](Cc1ccc(O)cc1)NC(=O)[C@H](CCCCN)NC(=O)[C@H](CO)NC(=O)[C@H](Cc1ccc(O)cc1)NC(=O)[C@H](CC(=O)O)NC(=O)[C@H](CO)NC(=O)[C@@H](NC(=O)[C@H](Cc1ccccc1)NC(=O)[C@@H](NC(=O)CNC(=O)[C@H](CCC(N)=O)NC(=O)C(C)(C)NC(=O)[C@@H](N)Cc1c[nH]cn1)[C@@H](C)O)[C@@H](C)O)C(=O)N[C@@H](CCC(=O)O)C(=O)N[C@@H](Cc1c[nH]c2ccccc12)C(=O)N[C@@H](CC(C)C)C(=O)N[C@@H](CCC(=O)O)C(=O)N[C@@H](CO)C(=O)N[C@@H](C)C(N)=O [Compound 8, H-H-Aib-QGTFTSDYSKYLE-K([17-carboxy-heptadecanoyl]-isoGlu-Peg3-Peg3)-RAAHDFIEWLESA-NH2] (H-H[Aib]QGTFTSDYSKYLEK([AEEA-AEEA-γGlu-C18 diacid])RAAHDFIEWLESA-NH2)
4 | 8.82 | 0.97 | CC[C@H](C)[C@H](NC(=O)[C@H](Cc1ccccc1)NC(=O)[C@H](CC(=O)O)NC(=O)[C@H](CCCCN)NC(=O)[C@H](C)NC(=O)[C@H](C)NC(=O)[C@H](CCCNC(=N)N)NC(=O)[C@H](CCCCNC(=O)CNC(=O)CNC(=O)[C@H](CO)NC(=O)CNC(=O)[C@H](CO)NC(=O)CNC(=O)CC[C@H](NC(=O)CCCCCCCCCCCCCCCCC(=O)O)C(=O)O)NC(=O)[C@H](CC(=O)O)NC(=O)[C@H](CC(C)C)NC(=O)[C@H](Cc1ccc(O)cc1)NC(=O)[C@H](CCCCN)NC(=O)[C@H](CO)NC(=O)[C@H](Cc1ccc(O)cc1)NC(=O)[C@H](CC(=O)O)NC(=O)[C@H](CO)NC(=O)[C@@H](NC(=O)[C@H](Cc1ccccc1)NC(=O)[C@@H](NC(=O)CNC(=O)[C@H](CCC(N)=O)NC(=O)C1(NC(=O)[C@@H](N)Cc2c[nH]cn2)CCC1)[C@@H](C)O)[C@@H](C)O)C(=O)N[C@@H](CCC(=O)O)C(=O)N[C@@H](Cc1c[nH]c2ccccc12)C(=O)N[C@@H](CC(C)C)C(=O)N[C@@H](CCC(=O)O)C(=O)N[C@@H](CO)C(=O)N[C@@H](C)C(N)=O [Compound 7, H-H-Ac4c-QGTFTSDYSKYLD-K([17-carboxy-heptadecanoyl]-isoGlu-GSGSGG)-RAAKDFIEWLESA-NH2]
5 | 3.25 |  | CC[C@H](C)[C@H](NC(=O)[C@H](Cc1ccccc1)NC(=O)[C@H](CC(=O)O)NC(=O)[C@H](CCCCN)NC(=O)[C@H](C)NC(=O)[C@H](C)NC(=O)[C@H](CCCNC(=N)N)NC(=O)[C@H](CCCCNC(=O)CNC(=O)CNC(=O)[C@H](CO)NC(=O)CNC(=O)[C@H](CO)NC(=O)CNC(=O)CC[C@H](NC(=O)CCCCCCCCCCCCCCCCC(=O)O)C(=O)O)NC(=O)[C@H](CCC(=O)O)NC(=O)[C@H](CC(C)C)NC(=O)[C@H](Cc1ccc(O)cc1)NC(=O)[C@H](CCCCN)NC(=O)[C@H](CO)NC(=O)[C@H](Cc1ccc(O)cc1)NC(=O)[C@H](CC(=O)O)NC(=O)[C@H](CO)NC(=O)[C@@H](NC(=O)[C@H](Cc1ccccc1)NC(=O)[C@@H](NC(=O)CNC(=O)[C@H](CCC(N)=O)NC(=O)C(C)(C)NC(=O)[C@@H](N)Cc1c[nH]cn1)[C@@H](C)O)[C@@H](C)O)C(=O)N[C@@H](CCC(=O)O)C(=O)N[C@@H](Cc1c[nH]c2ccccc12)C(=O)N[C@@H](CC(C)C)C(=O)N[C@@H](CCC(=O)O)C(=O)N[C@@H](CO)C(=O)N[C@@H](C)C(N)=O [Compound 6, H-H-Aib-QGTFTSDYSKYLE-K([17-carboxy-heptadecanoyl]-isoGlu-GSGSGG)-RAAKDFIEWLESA-NH2]
6 | 2.00 |  | CC[C@H](C)[C@H](NC(=O)[C@H](Cc1ccccc1)NC(=O)[C@H](CC(=O)O)NC(=O)[C@H](CCCCN)NC(=O)[C@H](C)NC(=O)[C@H](C)NC(=O)[C@H](CCCCNC(=O)CC[C@H](NC(=O)CCCCCCCCCCCCCCCCC(=O)O)C(=O)O)NC(=O)[C@H](CCC(=O)O)NC(=O)[C@H](CC(=O)O)NC(=O)[C@H](CC(C)C)NC(=O)[C@H](Cc1ccc(O)cc1)NC(=O)[C@H](CCCCN)NC(=O)[C@H](CO)NC(=O)[C@H](Cc1ccc(O)cc1)NC(=O)[C@H](CC(=O)O)NC(=O)[C@H](CO)NC(=O)[C@@H](NC(=O)[C@H](Cc1ccccc1)NC(=O)[C@@H](NC(=O)CNC(=O)[C@H](CCC(N)=O)NC(=O)C1(NC(=O)[C@@H](N)Cc2c[nH]cn2)CCC1)[C@@H](C)O)[C@@H](C)O)C(=O)N[C@@H](CCC(=O)O)C(=O)N[C@@H](Cc1c[nH]c2ccccc12)C(=O)N[C@@H](CC(C)C)C(=O)N[C@@H](CCC(=O)O)C(=O)N[C@@H](CO)C(=O)N[C@@H](C)C(N)=O [Compound 11, H-H-Ac4c-QGTFTSDYSKYLDE-K([17-carboxy-heptadecanoyl]-isoGlu)-AAKDFIEWLESA-NH2]
